# Legend:
# CB2 receptors = CB2 receptors (Homo sapiens, UniProt P34972); details: cited from earlier work
# [1] = Chemical characteristics of Composition A′, concentrated and diluted forms; assay type: physicochemical
# Protocol: Several tests were conducted to determine the chemical characteristics of composition Composition A′, both in concentrated and diluted forms. […] All liquid nanodomain droplets range in size from 5 to 20 nm. The pH of both the concentrate and diluted formulations is between 6.0 and 7.5.
# [2] = healthy volunteers and subjects with various medical conditions, 10 mg to 6000 mg, single and multiple doses; cited from earlier work
# [3] = rat, 120 mg/kg dose; cited from earlier work
# CB2 receptors, sequence (P34972 whole entry): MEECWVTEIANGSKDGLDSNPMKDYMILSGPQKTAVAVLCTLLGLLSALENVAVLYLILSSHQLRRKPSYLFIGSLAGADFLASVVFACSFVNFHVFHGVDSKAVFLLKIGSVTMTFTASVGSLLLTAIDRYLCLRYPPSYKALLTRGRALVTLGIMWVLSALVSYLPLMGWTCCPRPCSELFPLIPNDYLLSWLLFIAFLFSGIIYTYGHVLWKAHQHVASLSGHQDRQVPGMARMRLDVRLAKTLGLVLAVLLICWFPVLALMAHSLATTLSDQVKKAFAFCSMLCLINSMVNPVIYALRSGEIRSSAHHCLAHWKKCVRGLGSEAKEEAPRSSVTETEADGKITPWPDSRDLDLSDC
smiles,measurement,setting,value
"C=C(C)[C@@H]1CCC(C)=C[C@H]1c1c(O)cc(CCCCC)cc1O [CBD, 2-(1R,6R)-3-methyl-6-prop-1-en-2-ylcyclohex-2-en-1-yl-5-pentylbenzene-1,3-diol]",Affinity for CB2 receptors,CB2 receptors,low affinity
same,Log P,[1],about 6
same,Association of CBD with formulation phases during storage,[1]; both concentrated and diluted forms,remained associated with the surfactant and lipid phases
same,Safety,[2],safe
same,T1/2,[3],4 to 5 h

# Source: patent US20240366633A1, “METHODS FOR TREATMENT OF OPIOID USE DISORDER WITH CANNABINOIDS” (ANANDA SCIENTIFIC, INC, priority 2021, published 2024)
